The values that follow come from US10358435B2, “Triazolyl pyrimidinone compounds as PDE2 inhibitors” (Merck Sharp & Dohme Corp., priority 2015, dated 2019).

One series deals with other PDE isoforms. Particulars: reported in Brandon et al. 2007; cited from earlier work.
For series [1] the following is noted: reported in Brandon et al. 2007; cited from earlier work.
The target of another series is Rhesus PDE2A3 (Macaca mulatta, UniProt B3VTJ2). The series can be described thus: IMAP fluorescence polarization assay, rhesus PDE2A3 lysate from transfected AD293 cells. The series is classed as biochemical, rhesus macaque. As to conditions: FAM-labeled cAMP 50 nM, activator cGMP 1 uM; read-out: Rhesus PDE2 Ki. As for the experimental part:
The activity of the compounds in accordance with the present invention as PDE2 inhibitors may be readily determined using a fluorescence polarization (FP) methodology (Huang, W., et al., J. Biomol Screen, 2002, 7: 215).
In a typical experiment the PDE2 inhibitory activity of the compounds of the present invention was determined in accordance with the following experimental method. Rhesus PDE2A3 was amplified from rhesus macaque brain cDNA (Biochain Institute, Hayward, Calif.) using primers based on human PDE2A sequence (accession NM_002599.3) where the forward primer containing a Kozak consensus was 5′-[…]-3′ and the reverse primer was 5′-[…]-3′. Amplification with Easy-A High-Fidelity PCR cloning enzyme (Stratagene, La Jolla, Calif.) was 95° C. for 2 minutes followed by thirty three cycles of 95° C. for 40 seconds, 52° C. for 30 seconds, and 72° C. for 2 minutes 48 seconds. Final extension was 72° C. for 7 minutes. The PCR product was TA cloned into pcDNA3.3-TOPO (Invitrogen, Carlsbad, Calif.) according to standard protocol. A consensus sequence was developed from multiple clones and then deposited into GenBank (EU812167). AD293 cells (Stratagene, La Jolla, Calif.) with 70-80% confluency were transiently transfected with rhesus PDE2A3/pcDNA3.3-TOPO using Lipofectamine 2000 according to manufacturer specifications (Invitrogen, Carlsbad, Calif.). Cells were harvested 48 hours post-transfection and lysed by sonication (setting 3, 10×5 sec pulses) in a buffer containing 20 mM HEPES pH 7.4, 1 mM EDTA and Complete Protease Inhibitor Cocktail Tablets (Roche, Indianapolis, Ind.). Lysate was collected by centrifugation at 75,000×g for 20 minutes at 4° C. and supernatant utilized for evaluation of PDE2 activity. The fluorescence polarization assay for cyclic nucleotide phosphodiesterases was performed using an IMAP® FP kit supplied by Molecular Devices, Sunnyvale, Calif. (product # R8139). […] Assays were performed at room temperature in 384-well microtiter plates with an incubation volume of 20.2 μL. Solutions of test compounds were prepared in DMSO and serially diluted with DMSO to yield 8 μL of each of 10 solutions differing by 3-fold in concentration, at 32 serial dilutions per plate. […] 0% of inhibition is determined by using DMSO (1% final concentrations).
A Labcyte Echo 555 (Labcyte, Sunnyvale, Calif.) is used to dispense 200 nL from each well of the titration plate to the 384 well assay plate. Ten microliters of a solution of enzyme (1/2000 final dilution from aliquots; sufficient to produce 20% substrate conversion) was added to the assay plate. Next 10 uL of a separate solution of the substrate FAM-labeled cAMP (50 nM final concentration product # R7506 from Molecular Devices) and the activator cGMP (1 uM final concentration), prepared in the assay buffer (10 mM Tris HCl, pH 7.2, 10 mM MgCl2, 0.05% NaN3 0.01% Tween-20, and 1 mM DTT) was added to the assay plate and shaken to mix. The reaction is allowed to proceed at room temperature for 60 minutes. A binding solution is then made from the kit components, comprised of 80% Solution A, 20% Solution B and binding reagent at a volume of 1/600 the total binding solution. The enzymatic reaction is stopped by addition of 60 μL of the binding solution to each well of the assay plates and the plates are sealed and shaken for 30 seconds. The plate was incubated at room temperature for at least one hour prior to determining the fluorescence polarization (FP). The parallel and perpendicular fluorescence of each well of the plate was measured using a Tecan Genios Pro plate reader (Tecan, Switzerland) or Perkin Elmer EnVision™ plate reader (Waltham, Mass.). Fluorescence polarization (mP) was calculated from the parallel (S) and perpendicular (P) fluorescence of each sample well and the analogous values for the median control well, containing only substrate (So and Po), using the following equation: Polarization (mP)=1000*(S/So−P/Po)/(S/So+P/Po).

For a further series, the target named is human PDE2A1 (Homo sapiens (Human), UniProt O00408). The series can be described thus: IMAP fluorescence polarization assay, human PDE2A1 (PDE selectivity panel). As to conditions: FAM cAMP 50 nM with 1000 nM cGMP. The series is classed as biochemical. Put shortly: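 GST-tagged human PDE2A1 from insect cells; enzyme set to ~20% conversion of 50 nM FAM-cAMP with 1000 nM cGMP, 60 min at room temperature in pH 7.2 Tris/MgCl2/DTT buffer, ten 3-fold compound dilutions. IMAP FP read, apparent Ki derived using apparent KM 10,000 nM.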
Sequence of human PDE2A1 (O00408 other isoform, or with tags, fused parts or gaps): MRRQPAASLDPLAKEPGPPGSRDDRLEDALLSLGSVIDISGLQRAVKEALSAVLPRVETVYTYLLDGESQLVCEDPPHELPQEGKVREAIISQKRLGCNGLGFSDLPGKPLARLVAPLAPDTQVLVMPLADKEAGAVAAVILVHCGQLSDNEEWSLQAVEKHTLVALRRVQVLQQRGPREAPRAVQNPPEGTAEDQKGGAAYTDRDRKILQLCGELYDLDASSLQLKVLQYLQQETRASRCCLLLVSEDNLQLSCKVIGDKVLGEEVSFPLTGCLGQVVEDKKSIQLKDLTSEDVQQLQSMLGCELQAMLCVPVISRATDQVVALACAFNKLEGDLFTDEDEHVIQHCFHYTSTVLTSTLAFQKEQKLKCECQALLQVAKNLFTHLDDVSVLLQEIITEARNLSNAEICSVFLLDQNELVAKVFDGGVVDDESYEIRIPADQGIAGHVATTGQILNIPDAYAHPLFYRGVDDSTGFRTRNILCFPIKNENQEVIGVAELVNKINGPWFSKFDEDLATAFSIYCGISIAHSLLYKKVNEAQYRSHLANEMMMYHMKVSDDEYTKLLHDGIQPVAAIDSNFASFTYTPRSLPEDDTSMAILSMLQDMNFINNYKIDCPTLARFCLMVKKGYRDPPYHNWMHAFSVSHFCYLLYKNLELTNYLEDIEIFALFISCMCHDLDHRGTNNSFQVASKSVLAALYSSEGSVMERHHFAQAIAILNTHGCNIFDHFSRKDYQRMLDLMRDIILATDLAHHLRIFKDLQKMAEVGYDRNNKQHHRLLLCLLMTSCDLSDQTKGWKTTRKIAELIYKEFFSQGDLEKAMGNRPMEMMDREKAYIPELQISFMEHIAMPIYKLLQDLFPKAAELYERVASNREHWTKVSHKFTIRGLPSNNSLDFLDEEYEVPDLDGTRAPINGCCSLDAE
(Fluorescence polarisation rises when a labelled molecule tumbles more slowly, as on binding a larger partner.)

Sequence of Rhesus PDE2A3 (B3VTJ2 1-941): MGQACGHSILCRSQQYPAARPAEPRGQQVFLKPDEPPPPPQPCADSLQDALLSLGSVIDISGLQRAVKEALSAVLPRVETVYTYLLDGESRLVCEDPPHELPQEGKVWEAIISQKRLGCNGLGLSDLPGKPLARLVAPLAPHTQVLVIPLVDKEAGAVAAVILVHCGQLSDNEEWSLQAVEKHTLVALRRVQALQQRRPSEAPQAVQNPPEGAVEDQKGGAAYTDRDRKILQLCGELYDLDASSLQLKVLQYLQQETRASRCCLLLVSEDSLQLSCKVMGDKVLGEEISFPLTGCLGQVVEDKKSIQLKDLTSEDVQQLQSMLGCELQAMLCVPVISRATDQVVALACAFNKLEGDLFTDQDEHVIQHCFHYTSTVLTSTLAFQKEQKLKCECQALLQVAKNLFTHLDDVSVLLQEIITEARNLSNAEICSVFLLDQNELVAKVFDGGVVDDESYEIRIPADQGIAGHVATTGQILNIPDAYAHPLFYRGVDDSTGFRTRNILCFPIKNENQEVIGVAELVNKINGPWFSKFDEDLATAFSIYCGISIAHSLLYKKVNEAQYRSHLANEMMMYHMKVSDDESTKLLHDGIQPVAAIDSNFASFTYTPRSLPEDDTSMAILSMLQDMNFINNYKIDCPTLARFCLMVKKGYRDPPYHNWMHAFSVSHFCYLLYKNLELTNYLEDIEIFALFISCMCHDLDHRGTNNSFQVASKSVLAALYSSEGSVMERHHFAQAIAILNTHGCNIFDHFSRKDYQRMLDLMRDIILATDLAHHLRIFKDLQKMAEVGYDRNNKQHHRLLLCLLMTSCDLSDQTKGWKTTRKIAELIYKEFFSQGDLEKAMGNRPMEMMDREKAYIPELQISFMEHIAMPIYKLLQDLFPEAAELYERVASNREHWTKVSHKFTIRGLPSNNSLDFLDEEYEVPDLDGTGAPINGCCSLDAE

`COc1ccc(Cc2nn3c([C@@H](CCCc4ccccc4)[C@@H](C)O)nc(C)c3c(=O)[nH]2)cc1OC` [Bay 60-7550]: in the series with other PDE isoforms, the “potency at other PDE isoforms” value was “significant potency”. The brain penetration entry in series [1] is given as “limited brain penetration”.

For orientation: Ki means a dissociation constant, usually derived from enzyme kinetics or from competition with a known ligand. In the case of `Cc1nc(-c2cn([C@H](C)c3ccc(C(F)(F)F)cc3C)nn2)cc(=O)[nH]1` (single isomer, unassigned) [Example 9], the Ki on Rhesus PDE2A3 was 9.4 nM; at human PDE2A1, 6.9 nM.
